According to patent US6677157B1, “Method of diagnosis of prostate cancer” (Uropath Pty Ltd., A.C.N., priority 1998, dated 2004):

Tested on: mixed lymphocyte reaction
Test: Effect of keratan sulphate on a mixed lymphocyte reaction
Assay type: cell-based
Conditions: 20 μg/ml
Experimental: The function of keratan sulphate in prostate tissue is unknown. It is known, however, that GAG compounds are important in the prevention of autoimmune bonne diseases (forms of arthritis). In order to determine whether keratan sulphate may have an immune regulatory effect it was assessed by intorducing it into a mixed lymphocyte reaction. […] At markedly diluted lymphocyte ratios of >270:1 no effect was evident (see FIG. 2).

## keratan sulphate
Lymphocyte ratios of 10, 30 and 90:1
  reduction of mixed lymphocyte reaction: 50%
Markedly diluted lymphocyte ratios of >270:1
  effect on mixed lymphocyte reaction: no effect
